Measurements published in patent publication US10947245B2, “Crystal form A of 2-butoxy-7-(4-(pyrrolidin-1-ylmethyl)benzyl)-5H-pyrrolo[3,2-d]pyrimidin-4-amine for inhibiting toll-like receptor activity” (priority 2016, dated 2021).

Legend:
[1] = High humidity stability test (40° C./75% humidity, open); assay type: physicochemical; details: for Appearance / Content / Total content of impurities: 40° C./75% humidity (open)
Protocol: The crystal form A of the compound of formula I was tested in the accelerated test under high humidity conditions for stability in accordance with Guidelines for the Stability Test of Pharmaceutical Ingredients and Pharmaceutical Preparations (Chinese Pharmacopoeia 2010 Appendix XIXC).
The crystal form A prepared in Example 1 was subjected to an accelerated test in a constant temperature and humidity vessel under the conditions of 40° C./75% humidity (open). The samples were taken for test on day 30, day 60 and day 90, respectively.

[2] = High temperature stability test (60° C., open container); assay type: physicochemical; details: for Appearance / Content / Total content of impurities: open container
Protocol: The crystal form A of the compound of formula I was tested in the accelerated test under high temperature conditions for stability in accordance with Guidelines for the Stability Test of Pharmaceutical Ingredients and Pharmaceutical Preparations (Chinese Pharmacopoeia 2010 Appendix XIXC).
The crystal form A prepared in Example 1 was placed in an open-clean container at 60° C. The samples were taken for test on day 10, day 20 and day 30, respectively.

[3] = system: human peripheral blood mononuclear cells (PBMC); assay: Peripheral blood mononuclear cell test: cytokine stimulation (CBA, flow cytometer); assay type: cell-based; details: for TNF-α MEC / IFN-α MEC: human PBMC, 24 h; for IFN-α MEC: lowest drug concentration stimulating the production of 30 pg/mL of IFN-α
Protocol: The purpose of this example is to determine the expression level of cytokines 24 h after stimulation to human peripheral blood mononuclear cells (PBMC) with the compound of formula I.
The cell supernatant was assayed without dilution and the levels of IFN-α were directly determined. The compound of formula I was firstly formulated into 20 mM DMSO stock solution during the test and was gradient diluted with cell medium in 10-fold with the total number of 11 diluting points. The compounds in 9 diluting points (the highest concentration was 200 μmol/L) were added into 96-well plate with 50 μL in each well. Fresh human peripheral blood mononuclear cells were inoculated, with 150 μL in each well containing 450,000 cells. The cell culture plate was incubated in an incubator at 37° C., 5% CO2 for 24 h. After incubation, the culture plate was centrifuged at 1200 rpm for 5 min and the supernatant was collected and stored at −20° C. for determination. The determination of cytokine was performed using Cytometric Bead Array (CBA) of BD-Pharmingen on flow cytometer. Using the above determining method, the lowest drug concentration stimulating the production of 30 pg/mL of IFN-α was designated as the MEC value in the cytokine stimulating test.

[4] = biological target: T1, Toll-like receptor 8 (Homo sapiens, UniProt Q9NR97); assay: Toll-like receptor 8 in vitro receptor binding activity screen (HEK-blue hTLR8 cell, Quanti-Blue alkaline phosphatase readout); assay type: cell-based; details: versus GS-9620
T1 construct: host or cells: HEK-blue hTLR8 cell (HEK293-derived reporter line)
T1 sequence (Q9NR97 27-1041): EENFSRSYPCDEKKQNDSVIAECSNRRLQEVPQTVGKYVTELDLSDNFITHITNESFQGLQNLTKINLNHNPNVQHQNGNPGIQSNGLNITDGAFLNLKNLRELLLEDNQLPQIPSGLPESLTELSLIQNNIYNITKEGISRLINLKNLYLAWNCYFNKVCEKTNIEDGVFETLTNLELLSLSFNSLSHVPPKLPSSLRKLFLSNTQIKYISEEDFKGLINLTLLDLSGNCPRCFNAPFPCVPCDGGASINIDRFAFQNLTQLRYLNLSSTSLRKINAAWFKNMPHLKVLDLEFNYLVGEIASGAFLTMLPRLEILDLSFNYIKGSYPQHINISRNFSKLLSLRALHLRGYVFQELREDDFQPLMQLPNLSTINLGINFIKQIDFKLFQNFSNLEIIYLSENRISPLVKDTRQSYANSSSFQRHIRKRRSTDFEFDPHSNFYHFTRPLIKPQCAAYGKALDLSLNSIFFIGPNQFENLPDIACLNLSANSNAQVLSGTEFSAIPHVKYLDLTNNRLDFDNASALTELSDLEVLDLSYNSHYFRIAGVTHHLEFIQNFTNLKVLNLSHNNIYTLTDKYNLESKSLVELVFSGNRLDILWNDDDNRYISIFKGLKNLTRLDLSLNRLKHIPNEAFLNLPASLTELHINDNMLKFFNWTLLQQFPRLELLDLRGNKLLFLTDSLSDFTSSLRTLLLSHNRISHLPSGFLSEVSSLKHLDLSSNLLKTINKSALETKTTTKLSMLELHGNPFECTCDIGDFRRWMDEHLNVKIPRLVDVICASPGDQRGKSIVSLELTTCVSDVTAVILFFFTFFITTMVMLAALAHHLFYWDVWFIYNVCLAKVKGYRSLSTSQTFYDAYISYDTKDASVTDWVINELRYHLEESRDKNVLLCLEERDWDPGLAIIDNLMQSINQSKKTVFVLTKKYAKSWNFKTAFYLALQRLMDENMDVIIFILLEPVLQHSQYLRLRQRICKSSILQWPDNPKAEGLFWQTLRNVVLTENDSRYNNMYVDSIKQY
Protocol: (§1) Efficacy example 1: Toll-like receptor 7 and Toll-like receptor 8 in vitro receptor binding activity screen
(§2) HEK-blue hTLR7 cell and HEK-blue hTLR8 cell (available from InvivoGen)
(§3) The compounds were gradient diluted with DMSO in 3-fold using liquid work station POD starting at a concentration of 10 mmol/L and 10 points were diluted (2nd column to 11th column, and each point was duplicated). At 12th column, 1 μL of 5 mg/mL positive compound R848 was added as positive control; and at 1st column, 1 μL of DMSO was added as negative control. Each well contained 1 μL of DMSO.
(§4) 2. The cells in culture flask were collected and the cell density was diluted to 250,000 cells/mL.
(§5) 3. 200 μL (50,000 cells/well) of cell suspension was added into prepared compound plate and the final concentration of DMSO in each well was 0.5%.
(§6) 4. The culture plates containing cells and the compounds were incubated in CO2 incubator for 24 h at 37° C., 5% CO2.
(§7) 5. After 24 h incubation, 20 μL of supernatant was removed from each well to a 96-well transparent assay plate. To each well of the assay plate was added 180 μL of Quanti-Blue reagent and the plate was incubated in an incubator at 37° C., 5% CO2 for 1 h.
(§8) 6. After 1 h, the content of alkaline phosphatase in 20 μL of supernatant was determined using Microplate Reader OD650.
(§9) 7. EC50 of each compound was obtained with Prism software.

[5] = biological target: T2, Toll-like receptor 7 (Homo sapiens, UniProt Q9NYK1); assay: Toll-like receptor 7 in vitro receptor binding activity screen (HEK-blue hTLR7 cell, Quanti-Blue alkaline phosphatase readout); assay type: cell-based; details: versus GS-9620
T2 construct: host or cells: HEK-blue hTLR7 cell (HEK293-derived reporter line)
T2 sequence (Q9NYK1 27-1049): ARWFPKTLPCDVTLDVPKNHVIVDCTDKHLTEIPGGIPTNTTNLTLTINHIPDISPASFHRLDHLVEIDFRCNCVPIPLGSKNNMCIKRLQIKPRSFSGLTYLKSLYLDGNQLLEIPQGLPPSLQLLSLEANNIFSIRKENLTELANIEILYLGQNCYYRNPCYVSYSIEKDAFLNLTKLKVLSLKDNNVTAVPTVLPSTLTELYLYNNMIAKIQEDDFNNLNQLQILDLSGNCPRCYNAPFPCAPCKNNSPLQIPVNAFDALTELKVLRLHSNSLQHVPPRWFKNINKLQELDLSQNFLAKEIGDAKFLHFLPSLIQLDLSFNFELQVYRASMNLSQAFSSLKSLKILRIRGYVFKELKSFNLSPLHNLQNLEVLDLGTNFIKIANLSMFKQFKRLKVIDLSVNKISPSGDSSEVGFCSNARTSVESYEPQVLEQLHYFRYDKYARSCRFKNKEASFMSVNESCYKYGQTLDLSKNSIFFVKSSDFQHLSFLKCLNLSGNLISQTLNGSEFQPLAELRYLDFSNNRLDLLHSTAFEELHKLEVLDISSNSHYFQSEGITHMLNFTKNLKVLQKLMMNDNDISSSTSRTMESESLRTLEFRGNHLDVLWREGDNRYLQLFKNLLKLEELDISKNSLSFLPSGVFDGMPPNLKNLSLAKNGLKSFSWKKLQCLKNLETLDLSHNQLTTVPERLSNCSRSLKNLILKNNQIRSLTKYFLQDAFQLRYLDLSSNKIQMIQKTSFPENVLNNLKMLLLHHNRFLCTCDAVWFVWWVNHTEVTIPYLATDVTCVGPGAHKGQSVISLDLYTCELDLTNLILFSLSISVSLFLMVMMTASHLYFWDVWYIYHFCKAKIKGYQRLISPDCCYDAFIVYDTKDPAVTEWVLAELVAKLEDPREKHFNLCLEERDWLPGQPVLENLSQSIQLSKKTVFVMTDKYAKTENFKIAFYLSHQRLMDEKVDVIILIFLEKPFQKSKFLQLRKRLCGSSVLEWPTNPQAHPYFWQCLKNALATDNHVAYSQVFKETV
Protocol: as §1, §2, §3, §4, §5, §6, §7, §8, §9

## CCCCOc1nc(N)c2[nH]cc(Cc3ccc(CN4CCCC4)cc3)c2n1 [crystal form A, 2-butoxy-7-(4-(pyrrolidin-1-ylmethyl)benzyl)-5H-pyrrolo[3,2-d]pyrimidin-4-amine]
[1]; day 0 (initial)
  Appearance: White powder
  Content: 100.2%
  Total content of impurities: 0.92%
[1]; day 30
  Appearance: White powder
  Content: 99.9%
  Total content of impurities: 0.92%
[1]; day 60
  Appearance: White powder
  Content: 99.9%
  Total content of impurities: 0.65%
[1]; day 90
  Appearance: White powder
  Content: 100.2%
  Total content of impurities: 0.93%
[1]; 40° C./75% humidity, up to 90 days
  stability in high humidity conditions (in words): good stability in high humidity conditions
[2]; day 0 (initial)
  Appearance: White powder
  Content: 99.8%
  Total content of impurities: 0.92%
[2]; day 10
  Appearance: Light yellow powder
  Content: 98.5%
  Total content of impurities: 1.10%
[2]; day 20
  Appearance: Light yellow powder
  Content: 98.1%
  Total content of impurities: 1.18%
[2]; day 30
  Appearance: Light yellow powder
  Content: 98.8%
  Total content of impurities: 1.29%
[2]; up to 30 days
  stability in high temperature conditions (in words): good stability in high temperature conditions

## CCCCOc1nc(N)c2c(n1)N(Cc1cccc(CN3CCCC3)c1)CC(=O)N2 [GS-9620, reference compound]
[3]
  TNF-α MEC: 500 nM
  IFN-α MEC: 50 nM

## CCCCOc1nc(N)c2[nH]cc(Cc3ccc(CN4CCCC4)cc3)c2n1 [Compound of formula I, 2-butoxy-7-(4-(pyrrolidin-1-ylmethyl)benzyl)-5H-pyrrolo[3,2-d]pyrimidin-4-amine]
[4]
  in vitro receptor binding activity to Toll-like receptor 8 compared with control GS-9620 (in words): lower in vitro receptor binding activity to Toll-like receptor 8 than the control
[3]
  TNF-α MEC: 500 nM
  IFN-α MEC: 5 nM
[3]; versus GS-9620
  TNF-α inducing activity compared with control GS-9620 (in words): comparable TNF-α inducing activity
  in vitro IFN-α inducing activity of PBMCs compared with control GS-9620 (in words): better in vitro IFN-α inducing activity of PBMCs
[5]
  in vitro receptor binding activity to Toll-like receptor 7 compared with control GS-9620 (in words): higher in vitro receptor binding activity to Toll-like receptor 7 than the control
